Structures can show the parent of a compound that is named as a salt.
Experiment: Comparison of physical properties: solubility in esters, ketones, ethers
Type: physicochemical
Conditions: organic solvents: esters
Procedure: The following is a comparative example, comparing substantially pure lercanidipine free base prepared as described in example 1 (a to d) with crude free base prepared by the method of U.S. Pat. No. 4,705,797 and lercanidipine hydrochloride. Crude free base was prepared as described below. Lercanidipine hydrochloride was obtained from Recordati S.p.A., Milan, Italy.

| Solubility in esters, ketones, ethers | Solubility in esters, ketones, ethers (hydrochloride) | SMILES |
| --- | --- | --- |
| Very soluble |  | COC(=O)C1=C(C)NC(C)=C(C(=O)OC(C)(C)CN(C)CCC(c2ccccc2)c2ccccc2)C1c1cccc([N+](=O)[O-])c1 (centres unmarked) [Crude Free Base, methyl 1,1,N-trimethyl-N-(3,3-diphenylpropyl)-2-aminoethyl 1,4-dihydro-2,6-dimethyl-4-(3-nitrophenyl)pyridine-3,5-dicarboxylate] |
|  | insoluble | COC(=O)C1=C(C)NC(C)=C(C(=O)OC(C)(C)CN(C)CCC(c2ccccc2)c2ccccc2)C1c1cccc([N+](=O)[O-])c1 (centres unmarked) [Lercanidipine Hydrochloride, lercanidipine hydrochloride] |
